{
  "source": "patent US9861606B2",
  "about": "“Therapeutic for treating inflammatory lung disorders” (University College Cardiff Consultants Limited, priority 2012, dated 2018)",
  "key": {"[1]": {"molecular_target": "T1, human CaSR (Homo sapiens, UniProt P41180)", "T1 construct": "expressed in transfected cells; control HEK-0 with empty vector", "T1 sequence (P41180 20-1078)": "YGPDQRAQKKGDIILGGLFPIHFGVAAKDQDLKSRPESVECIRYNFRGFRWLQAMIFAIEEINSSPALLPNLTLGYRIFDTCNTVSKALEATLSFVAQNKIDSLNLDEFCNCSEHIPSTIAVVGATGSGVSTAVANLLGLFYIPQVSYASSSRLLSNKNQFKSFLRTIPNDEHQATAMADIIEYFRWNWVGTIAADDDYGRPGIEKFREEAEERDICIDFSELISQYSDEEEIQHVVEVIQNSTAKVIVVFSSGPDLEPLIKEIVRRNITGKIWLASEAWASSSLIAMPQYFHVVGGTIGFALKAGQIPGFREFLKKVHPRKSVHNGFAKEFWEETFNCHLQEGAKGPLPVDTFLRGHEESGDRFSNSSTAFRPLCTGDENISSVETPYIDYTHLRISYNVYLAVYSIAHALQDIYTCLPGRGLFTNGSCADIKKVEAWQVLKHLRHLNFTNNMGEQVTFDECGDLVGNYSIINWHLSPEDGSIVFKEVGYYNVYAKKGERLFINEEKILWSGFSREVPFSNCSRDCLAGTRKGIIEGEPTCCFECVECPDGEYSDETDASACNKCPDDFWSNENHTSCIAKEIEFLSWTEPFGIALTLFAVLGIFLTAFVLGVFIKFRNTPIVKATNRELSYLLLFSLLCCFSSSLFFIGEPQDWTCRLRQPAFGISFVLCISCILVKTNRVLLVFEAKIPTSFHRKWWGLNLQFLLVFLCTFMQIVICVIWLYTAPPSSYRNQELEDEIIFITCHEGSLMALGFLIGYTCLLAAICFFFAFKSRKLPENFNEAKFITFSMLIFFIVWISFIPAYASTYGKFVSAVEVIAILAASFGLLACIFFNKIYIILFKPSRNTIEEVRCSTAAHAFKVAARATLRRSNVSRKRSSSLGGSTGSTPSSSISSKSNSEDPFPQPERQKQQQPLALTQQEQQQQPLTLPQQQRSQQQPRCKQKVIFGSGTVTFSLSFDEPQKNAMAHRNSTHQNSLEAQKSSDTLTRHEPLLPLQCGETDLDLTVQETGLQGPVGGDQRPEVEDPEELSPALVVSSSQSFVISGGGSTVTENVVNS", "experiment": "Intracellular Ca2+ (fura-2, F/F0) in HEK293 cells stably expressing human CaSR", "type": "cell-based", "details": "100 nM calcilytic, HEK-CaSR", "protocol": "The structurally unrelated calcilytic NPS2143 also prevents spermine-induced CaSR activation (D). […] Note that ECP serum concentrations in asthmatic subjects are believed to be 30 μg/ml. n=121-487 cells, 3-9 experiments. Data are mean±SEM. Where differences are significant, they are shown above the bars. FIG. 6. Ca^2+o activates the CaSR, an effect which can be prevented by the calcilytic NPS89636. HEK293 cells stably expressing the human CaSR (HEK-CaSR) or transfected with empty vector (HEK-0) were loaded with 4 μM fura-2 AM and exposed to 5 mM Ca^2+o in the absence or presence of the calcilytic, NPS89636 (100 nM). Data are from >3 experiments and 121-386 cells. Significant differences are shown above the bars. […] The ability of a structurally unrelated calcilytic, NPS2143 (1-10 μM), was also tested on spermine-induced Ca^2+i mobilisation in HEK-CaSR. Ca^2+i release was measured as peak/baseline fluorescence (F/F0). Note that ECP serum concentrations in asthmatic subjects increase with disease severity and are believed to reach 30 μg/ml."}, "[2]": {"system": "BalbC mice", "experiment": "Bronchial hyper-reactivity in ovalbumin-sensitised, ovalbumin-challenged mouse model of asthma", "type": "in vivo", "details": "nebulised 3 μM; methacholine up to and including 30 mg/ml", "protocol": "FIG. 13. The calcilytic, NPS89636, prevents ovalbumin-induced BHR in methacholine challenged mice. Mice were sensitised on days 0 and 5 by an i.p. injection of 100 microgram/mouse of ovalbumin (OVA) and 50 mg/mouse aluminium hydroxide in PBS. Fourteen days after the last injection, mice were challenged by inhalation of a 0.5% OVA aerosol in PBS twice on the same day, 4 h apart. Mice were treated with nebulised NPS89636 (3 micromolar) or vehicle (0.3% DMSO) one hour before and three hours after the last OVA exposure. Measurements of BHR following methacholine challenge were taken by plethysmography 24 hours before and after the last OVA inhalation challenge.\nPenh was recorded by plethysmography during methacholine challenge, as above (Penh before treatment). 24 hours later, the mice were challenged with 0.5% nebulised OVA (in PBS w/v) in the absence or presence of nebulised NPS89636 (or 0.3% DMSO vehicle) by inhalation. The time-course of this challenge protocol consisted of: […]\nMale BalbC mice (˜25 g) purchased from Harlan and allowed to acclimatise for 1 week prior to experiment. […] Thirteen days after the last injection, Penh was recorded by plethysmography during methacholine challenge, as described above (Penh before treatment). […]\nBronchoalveolar lavage was performed using three times 1 ml of PBS and the BALF was collected for the quantification of inflammatory cells. […]"}, "[3]": {"experiment": "Plasma ionised Ca2+ in BalbC mice after nebulised calcilytic treatment", "type": "in vivo, mouse", "protocol": "Table 1. […] At the end of the experiment, bloods were collected via opening the carotid artery. Bloods were allowed to clot for 2-3 hours and spun down at 3000 g for 10 min at 4° C. Collected samples were analysed for measurements of Ca^2+o (performed by the Biochemistry department, University Hospital of Wales). […] Accordingly, the treatment is not detrimental in mammals."}, "[4]": {"experiment": "Plasma ionised Ca2+ in guinea pigs after nebulised calcilytic treatment", "type": "in vivo, guinea pig", "source_text": "Table 2. […] Accordingly, the treatment is not detrimental in mammals."}, "[5]": {"details": "24 hours after nebulised calcilytic, single animals, hydrochloride"}},
  "note": "Values joined by “and” are separate entries in the source; they are usually repeats but may differ in a detail not shown here. Equal entries are not always repeated. “Also recorded” adds a separate entry of the source.",
  "data": [
    {"molecule": "CCc1ccc(CC(C)(C)NCC(O)COc2cc(-c3ccc(C(=O)O)cc3)ccc2C#N)c(F)c1.Cl", "note": "(stereo in doubt) [NPS89636, (S)-4′-cyano-3′-[3-[2-(4-ethyl-2-fluorophenyl)-1,1-dimethylethylamino]-2-hydroxy-propoxy]-biphenyl-4-carboxylic acid hydrochloride]", "values": [
      {"measurement": "Effect of calcilytic on polycation-evoked Ca2+i release (F/F0)", "setting": "[1]; 300 nM poly-L-arginine, 1 mM spermine or 10 μg/ml ECP, hydrochloride", "result": "completely eliminated; also recorded: significantly reduced"},
      {"measurement": "Effect of calcilytic on Ca2+i increase evoked by 5 mM Ca2+o", "setting": "[1]", "result": "blocked"},
      {"measurement": "Effect on methacholine-induced BHR in OVA-sensitised, OVA-challenged mice", "setting": "[2]", "result": "completely abolished"},
      {"measurement": "Plasma ionised Ca++, Treatment (1 hour), individual animal", "setting": "[3]; 1 hour after nebulised calcilytic, single animals, hydrochloride", "result": "0.69 mM/L and 0.88 mM/L and 0.95 mM/L"},
      {"measurement": "Plasma ionised Ca++, Treatment (1 hour), Average", "setting": "[3]; 1 hour, average of 3", "result": 0.84, "unit": "mM/L"},
      {"measurement": "Plasma ionised Ca++, Treatment (4 hours), individual animal", "setting": "[3]; 4 hours after nebulised calcilytic, single animals, hydrochloride", "result": "0.98 mM/L and 0.94 mM/L and 0.96 mM/L"},
      {"measurement": "Plasma ionised Ca++, Treatment (4 hours), Average", "setting": "[3]; 4 hours, average of 3", "result": 0.96, "unit": "mM/L"},
      {"measurement": "Plasma ionised Ca++, Treatment (24 hours), individual animal", "setting": "[3]; [5]", "result": "1.09 mM/L and 1.1 mM/L and 0.93 mM/L"},
      {"measurement": "Plasma ionised Ca++, Treatment (24 hours), Average", "setting": "[3]; 24 hours, average of 3", "result": 1.04, "unit": "mM/L"},
      {"measurement": "Plasma ionised Ca++, Treatment (24 hours), individual animal", "setting": "[4]; [5]", "result": "1.55 mM/L (2×) and 1.54 mM/L and 1.77 mM/L and 1.58 mM/L and 1.2 mM/L"},
      {"measurement": "Plasma ionised Ca++, Treatment (24 hours), Average", "setting": "[4]; 24 hours, average of 6", "result": 1.53, "unit": "mM/L"}
    ]}
  ]
}
